# Experimental data from the SangsterLogP compilation.
# Assays:
# [1] = method code SF-AS, from Korenman, I.; Nefedova, E.; Dyukova, I. (1977). Extraction of picramic acid. Int J Clin Pharmacol Ther Toxicol, 51(5)734-735.; conditions: pH 7.4
# [2] = method code SF-HPLC, from DOI: 10.1002/ps.2780370106; conditions: pH 0.0
# [3] = method code SF-AS, from DOI: 10.1016/0014-2999(86)90191-3, PMID: 3780854; conditions: pH 7.4
# [4] = method code SF, from DOI: 10.1007/bf00253009, PMID: 7273265; conditions: pH 7.4
# [5] = not given; remark: listed apart in the source
# [6] = method code SF-HPLC, from DOI: 10.1002/jps.2600810507, PMID: 1403673
# [7] = method code SF-AS, from Korenman, Y.; Sotnikova, G. (1975). Extraction of vanillins from aqueous solutions. Zh. Prikl. Khim., 48(1)188-191.
# [8] = method code SF, from DOI: 10.1021/js9601804, PMID: 9344176; conditions: pH 8.0
# [9] = not given; remark: listed apart in the source
# [10] = not given; remark: listed apart in the source
# [11] = not given; remark: listed apart in the source
# [12] = method code SF-RC, from DOI: 10.1016/0006-2952(81)90006-x, PMID: 6456004
# [13] = method code SF-RC, from DOI: 10.1016/0048-3575(88)90037-5
# [14] = method code SF-ESR, from DOI: 10.1111/1523-1747.ep12319780, PMID: 2551971; conditions: pH 7.0
# [15] = method code SF, from Kruglik, P.; Leschev, M.; Rakhman'ko, M.; Bubel, N.; Asratyan, V. (1991). Extraction of 1,2,4-triazole and its derivatives by organic solvents. 64(8)1721-1724.
# [16] = method code SF-AS, from PMID: 2748530
# [17] = method code SF-AS, from DOI: 10.1021/jm00304a030, PMID: 5793164; conditions: pH 7.4
# [18] = not given; remark: listed apart in the source
# [19] = method code SF-AS, from DOI: 10.1016/s0006-3495(76)85671-8, PMID: 1247644; conditions: pH 8.0
# [20] = not given; remark: listed apart in the source
# [21] = method code SF-AS, from DOI: 10.1080/09553007214550551, PMID: 4537457
# [22] = method code SF, from DOI: 10.1016/0043-1354(79)90201-x
# [23] = method code SF, from DOI: 10.1246/bcsj.60.4357
# [24] = method code SF, from DOI: 10.1248/yakushi1947.99.3_235; conditions: pH 11.0
# [25] = method code SF, from PMID: 15170; conditions: pH 5.0
# [26] = not given; remark: listed apart in the source
# [27] = method code SF-RC, from DOI: 10.1016/s0969-8051(98)00005-5, PMID: 9720665; conditions: pH 7.0
# [28] = not given; remark: listed apart in the source
# [29] = method code SF-RC,FL, from DOI: 10.1016/0006-2952(81)90006-x, PMID: 6456004
# [30] = method code SF-POL, from DOI: 10.1111/j.1365-2044.1990.tb14524.x, PMID: 2316851; conditions: pH 7.1
# [31] = method code SF, from DOI: 10.1007/s00253-012-4358-8, PMID: 23081771; conditions: pH 7.0
# [32] = method code SF-AS, from DOI: 10.1016/0006-2952(75)90156-2, PMID: 235934; conditions: pH 7.4
# [33] = method code SF-HPLC, from DOI: 10.1007/bf03246517
# [34] = method code SF, from DOI: 10.1021/jm00111a036, PMID: 2066990
# [35] = method code SF, from DOI: 10.1002/jps.2600641111, PMID: 1195110; conditions: pH 7.4
# [36] = method code SF-AS, from DOI: 10.1021/jm00307a001, PMID: 5637185
# [37] = not given; remark: listed apart in the source
# [38] = not given; remark: listed apart in the source
# [39] = method code SF-AS, from DOI: 10.1111/j.2042-7158.1989.tb06484.x, PMID: 2570835
# [40] = pH 1.0
# [41] = method code SF-GLC, from Park, Y.; Park, S. (2000). Determination and prediction of octanol/water partition coefficients and air-water partition coefficients for environmental toxic chemicals. 11(7)773-779.
# [42] = method code SF-RC, from DOI: 10.1002/qsar.19880070404; conditions: pH 0.0
# [43] = method code SF-AS, from DOI: 10.1016/0022-1902(68)80266-0; conditions: pH 4.0
# [44] = not given; remark: listed apart in the source
# [45] = method code SF, from DOI: 10.1248/cpb.42.1525, PMID: 7923475
# [46] = not given; remark: listed apart in the source
# [47] = method code SF-HPLC, from PMID: 1880579; conditions: pH 7.4
# [48] = not given; remark: listed apart in the source
# [49] = method code SF, from DOI: 10.1080/09553009014551091, PMID: 1970998; conditions: pH 7.4
# [50] = not given; remark: listed apart in the source
compound,measurement,setting,value
CC(C)c1cnc([N+](=O)[O-])n1C,logD,[1],1.09
Cc1c(F)c(F)c(C(=O)O)c(F)c1F,logD,[2],3.15
COc1noc2c1CN(C)CC2,logD,[3],0.4
O=C(NCCO[N+](=O)[O-])c1cccnc1,logP,,-1.02
O=C(Cn1ccnc1[N+](=O)[O-])N(CO)CO,logD,[4],-1.59
O=C(Cn1ccnc1[N+](=O)[O-])NCC(F)(F)C(F)(F)F,logP,[5],0.76
O=C(O)c1ccc(C(=O)O)cc1,logP,[6],1.68
COc1ccc(C=O)cc1O,logP,[7],0.97
O=C1COc2ccccc2N1,logD,[8],1.31
CCC(CC)C(=O)NC(N)=O,logP,[9],0.91
O=C1NC(=O)c2ccccc21,logP,[10],1.04
O=[N+]([O-])c1nccn1[C@H]1O[C@H](CF)[C@@H](O)[C@@H]1O,logP,[11],0.04
NCCc1ccccc1,logP,[12],1.16
CC(C)Nc1nc(Cl)nc(NCCO)n1,logP,[13],0.78
CC1(C)COC(C)(C)N1O,logD,[14],0.48
CC(C)CCn1cnc([N+](=O)[O-])n1,logP,[15],1.26
O=[N+]([O-])c1nccn1CC(O)COCC(F)(F)F (stereo unspecified),logP,[16],0.46
Brc1ccc2[nH]ccc2c1,logD,[17],3
Cc1ccccc1C,logP,[18],3.29
Cc1nc2c(Cl)c(Cl)c(Cl)c(Cl)c2[nH]1,logD,[19],2.83
CCCn1cnc2c(N)ncnc21,logP,[20],0.74
CC(=O)c1ccc(Cl)cc1,logP,[21],2.35
NC(=O)COCc1ccco1,logP,[22],-0.11
CCc1cc([N+](=O)[O-])cc([N+](=O)[O-])c1O,logP,[23],2.67
OCCC1CCCCN1 (stereo unspecified),logD,[24],0.11
CCC1(CC)C(=O)NC(=O)NC1=O,logD,[25],0.71
CO[C@@H]([C@H](O)[C@H](O)CO)[C@@H](O)C=O,logP,[26],-3
OC1OC2COC(CI)OC2C(O)C1O (stereo unspecified),logD,[27],1.1
CC(C)(C)c1cn2nc(S(N)(=O)=O)sc2n1,logP,[28],2.15
NCCc1ccc(O)cc1,logP,[29],-0.24
NC(=S)NN=C1C=CC(=NNC(N)N)C=C1,logD,[30],-1.4
C=Cc1ccc(O)cc1,logD,[31],2.36
CCOc1ccc([N+](=O)[O-])cc1,logD,[32],2.53
OCCc1ccc(O)cc1,logP,[33],0.69
O=[N+]([O-])c1nccn1CC(O)C/C=C/I (stereo unspecified),logP,[34],0.4
CC(=O)NCCn1c([N+](=O)[O-])cnc1C,logD,[35],-0.47
C#CC1(O)CCCCC1,logP,[36],1.73
CCC1C(=O)NC(=O)N(C)C1=O (stereo unspecified),logP,[37],0.15
O=[N+]([O-])c1nccn1C1OCC(I)CC1F (stereo unspecified),logP,[38],0.8
O=c1[nH][nH]c(=O)c2ccccc12,logP,[39],0.11
O=C(O)Cc1c(Cl)ccc(Cl)c1Cl,logD,[40],3.2
CC(=O)OCCC(C)C,logP,[41],2.55
O=C(O)Cc1ccccc1I,logD,[42],2.33
O=C(CC(=O)C(F)(F)F)c1cccs1,logD,[43],1.46
O=S(=O)(CS(=O)(=O)C(F)(F)F)c1ccc(Cl)c(Cl)c1,logP,[44],1.7
COC(=O)c1ccccc1,logP,[45],2.09
CCCCCCC,logP,[46],4.48
O=[N+]([O-])c1nccn1C1OC(CI)C(O)C1O (stereo unspecified),logD,[47],0.7
CCOc1ccccc1O,logP,[48],1.91
O=[N+]([O-])c1nccn1COC(CO)CO,logD,[49],-1.03
COc1nc(C(Cl)(Cl)Cl)c(Cl)c(OC)c1Cl,logP,[50],5.48
